Key:
telomeric G-quadruplex = type: binding, human; conditions: for FRET-Q ΔTm(0.5 μM): telomeric G-quadruplex sequence, 0.5 μM compound, maximum error ± 1° C.
Protocol: (§1) 50 μL of annealed DNA and 50 μL of compound per well were put into 96-well plates and processed in a DNA Engine Opticon (MJ Research). […] The raw data were imported into Origin 7.0 (OriginLab Corp.) and the graphs smoothed using a 10-point running average and subsequently normalised. For the determination of the melting temperature, the first derivative of the smoothed melting curve was calculated.
(§2) The initial assessment of the DNA stabilisation ability of the compounds was done using FRET. Four different DNA sequences were used—a model for the human telomeric G-quadruplex, a self-complementary duplex DNA hairpin and two sequences that are present in the promoter region of the CKIT gene. A FRET competition experiment was also run in which affinity for the telomeric G-quadruplex sequence was evaluated in presence of increasing concentrations of duplex DNA. These experiments allowed us to assess the selectivity of the ligands between quadruplex and duplex DNA.

telomerase = assay: Modified TRAP assay (telomerase inhibition); type: biochemical
HGC-27 cells (gastric) = assay: SRB toxicity assay, HGC-27; type: cell-based; conditions: Homo sapiens, HGC-27, 96 h
Protocol: (§3) Human cancer cell lines, breast (MCF7), lung (A549), colon (HT-29), gastric (HGC-27) and normal human lung fibroblast lines (WI-38) were purchased from American Type Cell Culture (ATCC). The GIST882 line was a gift from Dr Jonathan Fletcher. All cell lines except HGC27 and WI38 were maintained in Dulbecco's Modified Eagles Media containing 10% foetal bovine serum (Invitrogen, UK), […] hydrocortisone (Acros Chemicals, Loughborough, UK), 2 mM L-glutamine (Invitrogen, Netherlands), and non-essential amino-acids (Invitrogen, Netherlands), and incubated at 37° C., 5% CO2. The WI38 and HGC27 lines were maintained in minimum essential medium, prepared as above. All cell lines were routinely passaged at a ratio of 1:6.
(§4) Short-term growth inhibition was measured using the SRB assay as described previously. Briefly, cells were seeded (4000 cells/wells) into the wells of 96 well-plates in appropriate medium and incubated overnight to allow the cells to attach. Subsequently cells were exposed to freshly-made solutions of drugs and incubated for a further 96 h. Following this the cells were fixed with ice cold trichlo-acetic acid (TCA) (10%, w/v) for 30 min and stained with 0.4% SRB dissolved in 1% acetic acid for 15 min. All incubations were carried out at room temperature.

ckit1 G-quadruplex = assay: FRET melting assay, ckit1 G-quadruplex; type: binding; conditions: ckit1 G-quadruplex sequence, 0.5 μM compound, maximum error ± 1° C.
Protocol: as §1, §2

MCF7 cells = assay: Senescence β-galactosidase staining in MCF7 cells; type: cell-based, human; conditions: at 70 nM
Protocol: Senescence detection and quantification experiments were carried out using a commercially available kit (Senescence β-galactosidase staining kit, Cell Signalling Technology, MA, USA). 1×10^5 cells were seeded in a 35 mm well of a 6-well plate (Nunc, Denmark) in 2 ml of medium and compound to test. The cells were incubated for 24 hours. The medium was then removed and the cells were washed with PBS (1×2 ml). The cells were fixed by treating them with 1 ml of fixative solution (2% formaldehyde and 2% glutaraldehyde in PBS) for 15 minutes at RT. The fixative solution was then removed and the wells washed with PBS (2×2 ml). Freshly prepared staining solution (a mixture of 930 μL of 40 mM citric acid/sodium phosphate (pH 6.0), 0.15 M NaCl and 2 mM MgCl2, 10 μL of 500 mM potassium ferrocyanide, 10 μL of 500 mM potassium ferricyanide and 50 μL of 20 mg/ml 5-bromo-4-chloro-3-indolyl-μD-galactopyranoside in DMF) (1 ml) was added and the cells were incubated overnight. The senescent cells, detected by their blue pigmentation, were quantified under a light microscope.
Senescence phenotype was investigated in MCF7 cells treated for 1 week with sub-cytotoxic concentrations of a selection of compounds.

GIST882 cells = assay: SRB toxicity assay, GIST882; type: cell-based; conditions: Homo sapiens, 96 h exposure
Protocol: as §3, §4

duplex DNA = assay: FRET melting assay, duplex DNA; type: binding; conditions: duplex sequence, 0.5 μM compound, maximum error ± 1° C.
Protocol: as §1, with “calculated. The difference between the melting temperature at 0.5 μM of the compound and the melting temperature for the blank (ΔTm(0.5 μM)) was used for comparison.” for “calculated.”

ckit2 G-quadruplex = assay: FRET melting assay, ckit2 G-quadruplex; type: binding; conditions: ckit2 G-quadruplex sequence, 0.5 μM compound, maximum error ± 1° C.
Protocol: as §1, §2

HT-29 cells (colon) = assay: SRB toxicity assay, HT-29; type: cell-based; conditions: Homo sapiens, 96 h exposure, HT-29D
Protocol: as §3, §4

SMILES | concentration required to increase the melting temperature by 35° C. (telomeric G-quadruplex; G-quadruplex DNA, FRET) | EC50 (telomerase) | IC50 (HGC-27 cells (gastric)) | FRET-Q ΔTm(0.5 μM) (telomeric G-quadruplex) | FRET-ckit1 ΔTm(0.5 μM) (ckit1 G-quadruplex) | Senescence (% of cells) after 1 week (MCF7) (MCF7 cells) | IC50 (GIST882 cells) | FRET-d ΔTm(0.5 μM) (duplex DNA) | FRET-ckit2 ΔTm(0.5 μM) (ckit2 G-quadruplex) | IC50 (HT-29 cells (colon))
CN(C)c1ccc(Nc2c3ccc(NC(=O)CCN4CCCC4)cc3nc3cc(NC(=O)CCN4CCCC4)ccc23)cc1 [BRACO19] | 2.5 µM | – | – | – | – | – | – | – | – | –
CN(C)CCCNc1cc2c3c(c(NCCCN(C)C)cc4c3c1C(=O)N(CCCN(C)C)C4=O)C(=O)N(CCCN(C)C)C2=O [Compound 12] | – | 25 ± 2.5 µM | 510 nM | 33.2 °C | 29.75 °C | 35.0 ± 3 (at 70 nM) % of cells | 1300 nM | 4.5 °C | 36.5 °C | 63 nM
CN(C)CCCNc1cc2c3c(ccc4c3c1C(=O)N(CCCN(C)C)C4=O)C(=O)N(CCCN(C)C)C2=O [Compound 13] | – | 17 ± 1.1 µM | – | 26.5 °C | 23.5 °C | – | – | 12.5 °C | 29 °C | –
CN(C)CCCN1C(=O)c2ccc3c4c(ccc(c24)C1=O)C(=O)N(CCCN(C)C)C3=O [Compound 32, reference compound] | – | – | – | 5.2 °C | 2.5 °C | – | – | 2.7 °C | 7.75 °C | –
CN(C)CCN1C(=O)c2ccc3c4c(ccc(c24)C1=O)C(=O)N(CCN(C)C)C3=O [Compound 33, N,N′-bis(3-(dimethylamino)ethylamino)-1,4,5,8-naphthalenetetracarboxylic acid diimide, reference compound] | – | – | – | 3.2 °C | 1.25 °C | – | – | 1 °C | 7.25 °C | –
